BigSolDB 2.1

c1cc2c3c(cccc3c1)CC2
solubility (mole fraction)
Details	in acetone	in benzene	in isobutanol	in m-xylene	in n-propanol
283 K	0.0417	0.118	0.00926	0.109	0.00879
288 K	0.0491	0.131	–	0.129	–
288.1 K	–	–	0.0128	–	0.012
293 K	0.0587	–	–	0.143	–
293.2 K	–	0.142	0.0162	–	0.0144
298 K	0.0692	0.162	0.0205	0.163	0.0175
303 K	0.0788	0.187	–	–	–
303.1 K	–	–	–	0.188	–
303.3 K	–	–	0.0253	–	0.0208
308 K	–	–	0.0297	–	0.0246
308.1 K	0.0954	–	–	–	–
308.2 K	–	–	–	0.216	–
308.3 K	–	0.215	–	–	–
313 K	0.113	0.244	–	0.245	–
313.1 K	–	–	0.0353	–	0.0295
318 K	0.136	0.277	0.0435	0.281	0.0364
323 K	0.173	0.312	0.0565	0.321	0.0464
